Key:
GL261 tumors = experiment: orthotopic GL261 glioblastoma model in syngeneic C57Bl/6 mice, intracranial delivery by osmotic pump; assay type: in vivo, C57BL/6J mice
Protocol: Animal Experiments: All procedures involving mice were conducted in accordance with the National Institutes of Health regulations concerning the use and care of experimental animals. The study of mice was approved by the Institutional Animal Care and Use Committee (IACUC) of the Feinstein Institute. First, 8 week old male C57BL/6J mice were inoculated in the right caudate putamen with GL261 cells. Briefly, animals were placed in a stereotactic frame after pre-anesthesia exposure in a box of 5% isoflurane. Deep anesthesia was maintained on the frame at approximately 2% isoflurane and 2% O2. A burr hole was drilled 1 mm anterior and 2.5 mm to the right of the bregma. With the aid of the stereotactic frame, GL261 cells (2×10^4 cells suspended in 1 μL) were injected with a Hamilton syringe at a depth of 3 mm over a one min time period. Subsequently, the syringe was left in place for 1 min to prevent reflux.
Seven days after implantation of the GL261 cells, an osmotic pump (Alzet, Durect) filled with either 0.42 mg/ml solution of semapimod or vehicle was implanted in a subcutaneous pocket on the dorsal flank of the animal. A catheter with attached cannula delivered the drug intracranially over a period of 2 weeks, at a steady rate of 0.25 μl/h, which is equivalent to a dose of […], assuming no blood-brain barrier permeability of the drug. Starting one day after pump implantation, animals were given 2 Gy whole brain irradiation every other day over a period of 10 days (10 Gy total).
Brains from mice-bearing tumors were frozen on dry ice and stored at −80° C. until processing. The brain was sliced using a cryostat at −20° C. at a thickness of 40 μm (for tumor sizing) or 8 μm for immunohistochemistry. Slices were placed on pre-coated poly-1-lysine slides (Superfrost, Fisher) and fixed in 3.7% formaldehyde in PBS. Sections were stained with Harris-modified haematoxilin solution. Activated microglia were visualized with an Iba1 antibody (Wako). Tumor cell invasion was determined by counting the number of Ki67 (Millipore) positive nuclei located beyond the tumor border. The border was outlined by determining where the bulk of the tumor material was found by Ki67 staining Tumor size was determined as the area of the largest cross section of the tumor, multiplied by the depth of the tumor.
The cell density of the tumor was calculated by counting the total number of cells in 10 fields taken over different sections and multiplying the tumor area by the thickness of the slice (8 μm) to obtain total number of cells in a tumor section. This was then divided by the volume of the tumor section to obtain the number of cells per unit volume. To obtain the total number of cells in a tumor, the cell density was multiplied by the calculated volume of the tumor.
Animals were inoculated with 2×10^4 GL261 cells into the right caudate putamen. To deliver semapimod, an osmotic pump was used that was implanted subcutaneously in the dorsal flank of the animal and fed a transcranial cannula that was inserted into the tumor. In order to mimic a therapeutic setting, tumors were allowed to develop for 1 week before the onset of treatment. To score tumor cell invasion, brain sections were probed for the presence of proliferative antigen Ki67. […] Whereas control tumors display diffuse edges and extensive tumor cell invasion into the surrounding parenchyma, semapimod-treated tumors have a sharply demarcated border (FIG. 4A).

GL261 cells = experiment: serum-stimulated GL261 invasion (transwell, BME); assay type: cell-based, murine; conditions: 10 μM; 10% FBS in bottom well, 48 h
Protocol: FIG. 1A-1C. Semapimod inhibits microglia-stimulated glioblastoma invasion in vitro. (A) Semapimod inhibits microglia-stimulated glioblastoma cell invasion. GL261 cells were embedded in basement membrane extract (BME) with or without microglia in the presence of the indicated concentrations of semapimod, layered in the transwell and incubated for 48 h. The number of invading GL261 cells was determined. Data shown represent the average+/−SEM of 3 independent experiments, performed in duplicate. […] GL261 cells embedded in BME in the presence of the indicated concentration of semapimod, were layered in the transwell and incubated for 48 h. Serum (10% FBS) was added to the bottom well. The number of invading GL261 cells was determined. Data shown represent the average+/−SEM of 3 independent experiments. (C) Semapimod inhibits glioblastoma cell-stimulated microglia invasion. Glioblastoma cells were plated in the bottom well and microglia were embedded in BME in the presence or absence of 200 nM semapimod, layered in the transwell and incubated for 48 h. […]
Invasion Assays: Glioblastoma and microglial cells were labelled with cell tracker green CMFDA and with cell tracker red CMTPX, respectively, and then embedded in 50 μL of 10 mg/mL basement membrane extract (BME) (Trevigen). […] All invaded cells were counted.

[1] = system: SK-NEP1 cells with M2 macrophages; experiment: invasion assay of SK-NEP1 co-cultured with polarized primary macrophages; assay type: cell-based, human; conditions: co-culture with M2 macrophages, p<0.01
Protocol: FIG. 7. CNI-1493 inhibits tumor invasion in vitro through in the presence of macrophages. When co-cultured with SK-NEP1, macrophages polarized to express the M2 phenotype induced increased tumor cell invasion. This increase in invasion was reversed when co-cultures were exposed to 200 nM CNI-1493. Error bars represent standard deviation.
In vivo, human ES cells (SK-NEP1) were surgically implanted into the left kidney of athymic mice. Mice were treated for 7 weeks with CNI-1493 or vehicle. Lung parenchyma was assessed for metastases utilizing both H&E and immunohistochemistry for the ES-specific CD99 and endothelial-specific CD31 markers. In vitro, primary macrophages isolated from human blood were polarized to M1 or M2 phenotypes by exposure to GM-CSF or M-CSF and activated with IFN-γ and LPS or IL-4. Cells were co-cultured with polarized macrophages and underwent proliferation and invasion assays in the presence or absence of CNI-1493.

[2] = two weeks after tumor cell inoculation

C/C(=N\NC(=N)N)c1cc(NC(=O)CCCCCCCCC(=O)Nc2cc(/C(C)=N/NC(=N)N)cc(/C(C)=N/NC(=N)N)c2)cc(/C(C)=N/NC(=N)N)c1 [semapimod]
median survival (GL261 tumors; absence of radiation, controls 20 days, not significant): 22 days | number of Iba1+ microglia per tumor area (GL261 tumors; equivalent to 6 mg/kg/day intracranially, 1 week): No significant difference | inhibition of tumor cell invasion in vivo (Ki67-positive cells beyond tumor border) (GL261 tumors; equivalent to 6 mg/kg/day intracranially, 1 week, start 7 days after inoculation): more than 75% | tumor cell density (GL261 tumors; [2]): small but significant increase | tumor size (volume) (GL261 tumors; [2]): robust inhibition | estimated total number of cells in tumor (GL261 tumors; two weeks after tumor cell inoculation, versus control tumors): significantly less | tumors by histological analysis in surviving animals (GL261 tumors; with 10 Gy fractionated whole brain irradiation): no detectable tumors | survival beyond the median survival time of control animals (GL261 tumors; with 10 Gy fractionated whole brain irradiation, most of the animals): at least 40 days | effect on serum-stimulated GL261 invasion (GL261 cells): does not affect | effect on M2 macrophage-enhanced ES cellular invasion [1]: strongly decreased

From US9440914B2, “Method for treating glioblastomas and other tumors” (THE FEINSTEIN INSTITUTE FOR MEDICAL RESEARCH, priority 2013, dated 2016)
